Data on 6 molecules can be found in patent publication US8765755B2, “N-containing heterocyclic compounds” (YM Biosciences Australia Pty Ltd, priority 2007, dated 2014).

In one test the test system is BafT_J3. Description: Cellular screening, BaF3 TEL:JAK3 cells (Alamar Blue). The format is cell-based. The settings on record: Mus musculus, 40 hr incubation. Summed up:
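Growth-factor-independent BaF3 tet-off cells express a TEL(nt 1–487)/JAK3 kinase-domain fusion and are grown without WEHI 3B medium. Compound plates were prepared at 20 μM and added as 10× final. After 40 h at 37 °C, 5% CO2, Alamar Blue was added for 4–6 h and read at 544 nm.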
A general note: The colour change of resazurin is a common sign of viable cells or microbes.

The target of a further test is T1, human JAK3 (Homo sapiens, UniProt P52333).
T1 construct: The kinase domain of human JAK3 was amplified; GST (N); made in house; host or cells: Sf9 (Spodoptera frugiperda) insect cells, baculovirus
T1 sequence (P52333 822-1111 limits assumed): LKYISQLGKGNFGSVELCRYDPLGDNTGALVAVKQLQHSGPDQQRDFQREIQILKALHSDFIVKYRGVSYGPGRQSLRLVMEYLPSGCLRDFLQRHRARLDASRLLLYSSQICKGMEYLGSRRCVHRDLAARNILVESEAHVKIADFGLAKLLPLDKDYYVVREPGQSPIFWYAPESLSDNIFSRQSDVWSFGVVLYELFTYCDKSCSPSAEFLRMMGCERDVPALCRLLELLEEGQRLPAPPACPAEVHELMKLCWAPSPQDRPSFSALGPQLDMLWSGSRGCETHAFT
Nature of the test: JAK3 kinase enzyme assay (Alphascreen). The format is biochemical. The settings on record: 80 or 625 um ATP. Summed up: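 Sf9-expressed GST-tagged human JAK3 kinase domain was pre-incubated 20 min with compound at 5 μM final in HEPES pH 7.5 buffer. Then 60 or 90 min reaction with 80 or 625 μM ATP and biotinylated peptide substrate at 111 or 133 μM. AlphaScreen phosphotyrosine acceptor and streptavidin donor beads, 2–3 h.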

The subject of the next test is CTLL2. Nature of the test: Cellular screening, CTLL2 cells (Alamar Blue). The format is cell-based. The settings on record: Mus musculus, CTLL-2, 40 hr incubation. Summed up:
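CTLL2 cells in late log phase were incubated with compounds, from screening plates at 20 μM, for 40 hr at 37° C, 5% CO2. Viability was read by Alamar Blue, added for a further 4-6 hours, with the read at 544 nm.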

In another test the target is T2, human JAK2 (Homo sapiens, UniProt O60674).
T2 construct: The kinase domain of human JAK2 was amplified; GST (N); made in house; host or cells: Sf9 (Spodoptera frugiperda) insect cells, baculovirus
T2 sequence (O60674 849-1124 limits assumed): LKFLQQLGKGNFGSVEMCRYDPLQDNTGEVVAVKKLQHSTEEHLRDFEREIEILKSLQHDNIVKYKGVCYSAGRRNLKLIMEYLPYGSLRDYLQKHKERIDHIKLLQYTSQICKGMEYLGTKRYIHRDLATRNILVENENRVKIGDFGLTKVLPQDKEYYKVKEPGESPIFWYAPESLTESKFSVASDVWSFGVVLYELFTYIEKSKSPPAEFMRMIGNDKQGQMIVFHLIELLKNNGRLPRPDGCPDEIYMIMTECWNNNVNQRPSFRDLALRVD
Description: JAK2 kinase enzyme assay (Alphascreen). The format is biochemical. The settings on record: 80 or 625 um ATP. Summed up:
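Compounds at 5 μM final were pre-incubated 20 min with Sf9-expressed GST-JAK2 kinase domain in HEPES pH 7.5 phosphotyrosine buffer, then incubated 60 or 90 min with 80 or 625 um ATP. Substrate was biotinylated peptide 1 (111 μM final) or peptide 2 (133 μM final). Phosphotyrosine was detected by AlphaScreen acceptor/streptavidin donor beads after 2–3 h.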
(Alpha assays give light when donor and acceptor beads are brought close together.)

In another test the target is T3, human JAK1 (Homo sapiens, UniProt P23458).
T3 construct: The kinase domain of human JAK1 was amplified; GST (N); made in house; host or cells: Sf9 (Spodoptera frugiperda) insect cells, baculovirus
T3 sequence (P23458 875-1153 limits assumed): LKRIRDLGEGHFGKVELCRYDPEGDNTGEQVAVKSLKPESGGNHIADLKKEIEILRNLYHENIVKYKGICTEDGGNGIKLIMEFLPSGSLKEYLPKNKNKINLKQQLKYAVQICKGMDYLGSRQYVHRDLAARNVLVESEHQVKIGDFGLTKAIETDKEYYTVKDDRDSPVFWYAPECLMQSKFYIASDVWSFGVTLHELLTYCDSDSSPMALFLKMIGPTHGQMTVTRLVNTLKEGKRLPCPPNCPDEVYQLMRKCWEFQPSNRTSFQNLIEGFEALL
Nature of the test: JAK1 kinase enzyme assay (Alphascreen). The format is biochemical. The settings on record: 80 or 625 um ATP. How it is done: For screening purposes, compounds (in 100% DMSO) were warmed at 37 degrees for at least 20 minutes before use. A […] stock was initially made in assay buffer, where the final concentration of DMSO was 0.3%. The stocks were then diluted in 384 well Optiplates (Packard) where the final concentration of the compound was 5 μM.
The kinase domain of human JAK1 was amplified from U937mRNA using the polymerase chain reaction with the following primers: […]
The JAK1 PCR products were cloned into the pDest20 destination vector (Gibco). The JAK1 plasmid was then transformed into competent DH10Bac cells (Gibco), and the recombinant baculovirus was prepared via Sf9 insect cell transfection.
Baculovirus preparations from each of the JAK family members were infected into one litre of Sf9 (Spodoptera frugiperda) cells (Invitrogen) grown in SF900II serum free medium (Invitrogen) to a cell density of approximately 2×10^6 cells/ml. Cells were infected with virus at a cell culture to virus stock ratio of 20:1. Cells were harvested and lysed 48 hours post infection. The GST-tagged JAK kinase domains were purified by affinity chromatography on a GSH agarose column (Scientifix).
Kinase assays were performed in 384 well Optiplates (Packard) using an Alphascreen Protein Tyrosine KinaseP100 detection kit The compounds were pre-incubated with affinity purified PTK domain in the presence of phosphotyrosine assay buffer (10 mM HEPES, pH 7.5, 100 mM MgCl2, 25 mM NaCl, 200 mM sodium vanadate and 0.1% Tween 20) for 20 minutes. The compounds were then incubated with substrate in the presence of either 80 or 625 um ATP for 60 or 90 minutes. The substrate used was either susbtrate-1 with the sequence biotin-EGPWLEEEEEAYGWMDF-NH2 [SEQ. ID. NO. 13] (final concentration 111 μM) or susbtrate-2 substrate with the sequence biotin-EQEDEPEGDYFEWLEPE (final concentration 133 μM). Alphascreen phosphotyrosine acceptor beads followed by streptavidin donor beads at a concentration of 1/100 in stop buffer were added to each well under subdued light and incubated for 2-3 hours. The Alphascreen plates were read on a Packard Fusion Alpha instrument.

The test system of a further test is BAF3wt. Nature of the test: Cellular screening, BaF3 wild-type cells (Alamar Blue). The format is cell-based. The settings on record: Mus musculus, 40 hr incubation. Summed up: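 BaF3 wild-type cells grown in DMEM with 10% FCS and 10% WEHI 3B conditioned medium, incubated with compound for 40 h at 37 °C, 5% CO2. Viability read by Alamar Blue after a further 4-6 h, at 544 nm; screening concentration 20 μM in dilution plate.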

In another test the test system is BafT_J2. Nature of the test: Cellular screening, BaF3 TEL:JAK2 cells (Alamar Blue). The format is cell-based. The settings on record: Mus musculus, 40 hr incubation. Summed up:
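BaF3 cells expressing a TEL–JAK2 kinase-domain fusion, growth-factor independent, were exposed to compounds for 40 hr at 37° C, 5% CO2. Screening concentration was 20 μM in the dilution plate, added as 10× final. Viability read with Alamar Blue after a further 4-6 h, at 544 nm.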

What is called IC50 is the concentration at which inhibition is half-maximal. As to `CS(=O)(=O)N(CC#N)c1cccc(-c2csc3cnc(Nc4ccc(N5CCOCC5)cc4)nc23)c1` [Compound 31, N-(cyanomethyl)-N-(3-(2-(4-morpholinophenylamino)thieno[3,2-d]pyrimidin-7-yl)phenyl)methanesulfonamide], the IC50 is < 1000 nM with BafT_J3; < 100 nM on human JAK3; < 1000 nM in the test on CTLL2; < 100 nM against human JAK2; < 100 nM on human JAK1; < 1000 nM in the test on BAF3wt. The IC50 in the test with BafT_J2 was < 1000 nM.
As for `Cn1cc(-c2ccc(S(N)(=O)=O)cc2)c2nc(Nc3ccc(N4CCOCC4)cc3)ncc21` [Compound 34, 4-(5-methyl-2-(4-morpholinophenylamino)-5H-pyrrolo[3,2-d]pyrimidin-7-yl)benzenesulfonamide], the IC50 in the test with BafT_J3 (given as number) was > 20000 nM; against human JAK3 it was < 500 nM; with CTLL2 (given as number), > 20000 nM; against human JAK2, < 100 nM; at human JAK1, < 100 nM; in the test with BAF3wt it was < 20000 nM. For the same molecule, the concentration for half-maximal inhibition (IC50) with BafT_J2 was < 1000 nM.
Regarding `CC(C)(C)NS(=O)(=O)c1cccc(-c2csc3cnc(Nc4cccc(N5CCOCC5)c4)nc23)c1` [Compound 47, N-tert-butyl-3-(2-(3-morpholinophenylamino)thieno[3,2-d]pyrimidin-7-yl)benzenesulfonamide], the IC50 is < 5000 nM in the test on BafT_J3; < 500 nM on human JAK3; < 5000 nM in the test on CTLL2; < 100 nM against human JAK2; < 100 nM against human JAK1; < 5000 nM with BAF3wt. Further, the concentration for half-maximal inhibition (IC50) in the test on BafT_J2 was < 5000 nM.
On to `CC(C)(C)NS(=O)(=O)c1cccc(-c2csc3cnc(Nc4cccc(CO)c4)nc23)c1` [Compound 48, N-tert-butyl-3-(2-(3-(hydroxymethyl)phenylamino)thieno[3,2-d]pyrimidin-7-yl)benzenesulfonamide], for which the IC50 in the test on BafT_J3 was < 1000 nM; at human JAK3, < 500 nM; in the test with CTLL2, < 1000 nM; against human JAK2, < 100 nM; on human JAK1, < 100 nM; in the test with BAF3wt it was < 1000 nM. The IC50 in the test with BafT_J2 is < 1000 nM.
For the molecule `COc1cc(Nc2ncc3scc(-c4cccc(S(=O)(=O)NC(C)(C)C)c4)c3n2)cc(OC)c1OC` [Compound 50, N-tert-butyl-3-(2-(3,4,5-trimethoxyphenylamino)thieno[3,2-d]pyrimidin-7-yl)benzenesulfonamide], the 50% inhibitory concentration (IC50) in the test on BafT_J3 was < 1000 nM; on human JAK3, < 500 nM; with CTLL2, < 1000 nM; at human JAK2, < 100 nM; against human JAK1, < 100 nM; with BAF3wt it was < 1000 nM. In the test on BafT_J2, the IC50 was < 1000 nM.
Consider `COc1ccc(Nc2ncc3scc(-c4cccc(S(=O)(=O)NC(C)(C)C)c4)c3n2)cc1OC` [Compound 53, N-tert-butyl-3-(2-(3,4-dimethoxyphenylamino)thieno[3,2-d]pyrimidin-7-yl)benzenesulfonamide], for which the half-maximal inhibitory concentration (IC50) with BafT_J3 is < 1000 nM; on human JAK3, < 500 nM; in the test with CTLL2, < 5000 nM; against human JAK2, < 100 nM; on human JAK1 it was < 100 nM; with BAF3wt, < 1000 nM. For the same molecule, in the test on BafT_J2, the IC50 was < 1000 nM.
